# “And” between values parts separate entries of the source, which are not always exact repeats. Equal entries are not always repeated. Structures can show the parent of a compound that is named as a salt. Where two headings read alike, the source gives them in different places.
# Legend:
# Assay in all cases: Microculture tetrazolium assay
# Type in all cases: cell-based
# [1] = system: HT29
# [2] = system: SKVLB; settings: for VLB/OV3: IC50 ratio SKVLB/SKOV3; for IC50: SKVLB
# [3] = system: SKOV3
# [4] = system: LOX; settings: read-out: IC50
# [5] = HT29, hydrochloride, read-out: IC50
# [6] = Homo sapiens, HT-29, HT29, read-out: IC50
# [7] = Homo sapiens, SK-OV-3, SKOV3, read-out: IC50
# [8] = SKOV3, hydrochloride, read-out: IC50
SMILES,"IC50 [1, 6] [µM]",IC50 ([2]; read-out: IC50),"IC50 [3, 7] [µM]",IC50 [4] [µM],VLB/OV3 [2],further results
"CC(=O)C1Cc2c(O)c3c(c(O)c2C(O[C@H]2C[C@H](N)[C@H](O)[C@H](C)O2)O1)C(=O)c1ccccc1C3=O (mixture of isomers) [BCH-1130, (1'S,1S,3R) and (1'S,1R,3S)-Methyl-[5,12-dihydroxy-1-(2',3',6'-trideoxy-3'-amino-4'-hydroxy-L-lyxohexopyranose)-6,11-dioxo-3,4,6,11-tetrahydroanthraceno-(2,3-C)pyran-3-yl]ketone hydrochloride]",0.17,0.573 µM,,,,"IC50 [1, 5]: 0.127 µM; VLB/OV3 ([2]; hydrochloride): 21.87 and 19.04; IC50 ([2]; hydrochloride, read-out: IC50): 1.03 µM"
"CC(=O)C1Cc2c(O)c3c(c(O)c2C(O[C@H]2C[C@H](N4CCOCC4)[C@H](O)[C@H](C)O2)O1)C(=O)c1ccccc1C3=O (mixture of isomers) [BCH-1191, (1'S,1R,3S) and (1'S,1S,3R)-Methyl(1-(2',3',6'-trideoxy-3'-morpholino-L-lyxohexopyranose)-6,11-dioxo-5,12-dihydroxy-3,4,6,11-tetrahydroanthraceno[2,3-c]pyran-3-yl)ketone]",,,,,3.57,IC50 [2]: 1.05 µM
"C[C@@H]1O[C@@H](O[C@@H]2O[C@@H](C(C)(F)F)CC3=C2C(=O)c2cc4ccccc4c(O)c2C3=O)C[C@H](NC(=O)C(F)(F)F)[C@@H]1O (mixture of isomers) [BCH-1677, (1'S,1R,3S) and (1'S,1S,3R)-5,12-dioxo-3-(1,1-difluoroethyl)-6-hydroxy-1-(2',3',6'-trideoxy-3'-trifluoroacetamido-L-lyxohexopyranose)-3,4,5,12-tetrahydroanthraceno-[2,3-c]-pyran]",5.44,7.79 µM,4.71,2.48,1.65,
"C[C@@H]1O[C@@H](O[C@@H]2O[C@@H](C(=O)C(C)(C)C)CC3=C2C(=O)c2cc4ccccc4c(O)c2C3=O)C[C@H](NC(=O)C(F)(F)F)[C@@H]1O (mixture of isomers) [BCH-2197, (1'S, 1S,3S) and (1'S,1R, 3R)-tert-butyl-(6-hydroxy-1-(2',3',6'-trideoxy-3'-trifluoroacetamido-4-hydroxy-L-lyxohexopyranose)-5,12-dioxo-3,4,5,12-tetrahydroanthraceno-[2,3-c]-pyran-3-yl)-ketone]",0.52,3.02 µM,2.77,,1.09,
"C[C@@H]1O[C@@H](O[C@H]2O[C@H](C(=O)C(C)(C)C)CC3=C2C(=O)c2cc4ccccc4c(O)c2C3=O)C[C@H](NC(=O)C(F)(F)F)[C@@H]1O (mixture of isomers) [BCH-2198, (1'S, 1S,3S) and (1'S,1R, 3R)-tert-butyl-(6-hydroxy-1-(2',3',6'-trideoxy-3'-trifluoroacetamido-4-hydroxy-L-lyxohexopyranose)-5,12-dioxo-3,4,5,12-tetrahydroanthraceno-[2,3-c]-pyran-3-yl)-ketone]",2.41,4.15 µM,4.4,,0.94,
CC(=O)[C@H]1CC2=C(C(=O)c3cc4ccccc4c(O)c3C2=O)[C@H](O[C@H]2C[C@H](N)[C@H](O)[C@H](C)O2)O1 [BCH-1127],,,,,1.87 and 3.24,
"CC[C@H]1CC2=C(C(=O)c3cc4ccccc4c(O)c3C2=O)[C@H](O[C@H]2C[C@H](NC(=O)C(F)(F)F)[C@H](O)[C@H](C)O2)O1 [BCH-1187, (1'S,1S,3S)-5,12-dioxo-3-ethyl-6-hydroxy-1-(2',3',6'-trideoxy-3'-trifluoroacetamido-4'-hydroxy-L-lyxohexopyranose)-3,4,5,12-tetrahydroanthraceno[2,3-c]pyran]",1.42,3.86 µM and 3.88 µM,1.2,,3.22 and 2.10,"IC50 ([1]; HT29, read-out: IC50): 1.98 µM; IC50 ([3]; SKOV3, read-out: IC50): 1.85 µM"
"COC(=O)[C@H](C)O[C@@H]1OC(C(=O)OC)(C(=O)OC)CC2=C1C(=O)c1cc3ccccc3c(O)c1C2=O [BCH-1668, (1R,1'S)-3,3-Bis-carbomethoxy-1-(1'-carbomethoxyethoxy)-5,12-dioxo-6-hydroxy-3,4,5,12-tetrahydroanthraceno[2,3-C]pyran]",5.7,6.2 µM,6.2,5.2,,
CC(=O)C1CC2=C(C(=O)c3cc4ccccc4c(O)c3C2=O)C(OC[C@H](O)CO)O1 (stereo partly drawn) [BCH-1669],0.591,1.05 µM,1.21,0.631,0.87,
CC(=O)C1CC2=C(C(=O)c3cc4ccccc4c(O)c3C2=O)C(OC[C@@H](O)CO)S1 (stereo partly drawn) [BCH-1670],0.342,0.68 µM,0.547,0.673,1.24,
CC(=O)O[C@@H]1[C@H](C)O[C@@H](O[C@H]2S[C@H](C(C)=O)CC3=C2C(=O)c2cc4ccccc4c(O)c2C3=O)C[C@@H]1OC(C)=O [BCH-1671],,,,,0.82 and 1.00,
CC(=O)[C@H]1Cc2c(O)c3c(c(O)c2[C@H](O[C@@H]2O[C@@H](C)[C@@H](O)[C@@H](O)C2I)O1)C(=O)c1ccccc1C3=O (stereo partly drawn) [BCH-1675],5.28,,,1.18,,
"CC(C)[C@H]1Cc2c(O)c3c(c(O)c2[C@H](O[C@H]2C[C@H](N4CCOCC4)[C@H](O)[C@H](C)O2)O1)C(=O)c1ccccc1C3=O [BCH-2192, (1'S,1S,3R)-5,12-dihydroxy-6,11-dioxo-3-isopropyl-1-(2',3',6'-trideoxy-3'(4-morpholinyl)-L-lyxohexopyranose)-3,4,5,12-tetrahydroanthraceno-[2,3-c]-pyran hydrochloride]",,,,,,"IC50 [1, 5]: 4.65 µM; VLB/OV3 ([2]; hydrochloride): 1.18; IC50 ([2]; hydrochloride, read-out: IC50): 2.28 µM; IC50 [3, 8]: 1.93 µM"
"CC(C)[C@H]1Cc2c(O)c3c(c(O)c2[C@H](O[C@H]2C[C@H](N4CCOCC4C#N)[C@H](O)[C@H](C)O2)O1)C(=O)c1ccccc1C3=O (stereo partly drawn) [BCH-2195, (1'S,1S,3R)-5,12-dihydroxy-6,11-dioxo-3-isopropyl-1-(2',3',6'-trideoxy-3'(3-cyano-4-morpholinyl)-L-lyxohexopyranose)-3,4,5,12-tetrahydroanthraceno-[2,3-c]-pyran]",,,,,2.22,"IC50 ([1]; Homo sapiens, HT-29, HT29): 3.4 µM; IC50 [2]: 10.1 µM; IC50 ([3]; Homo sapiens, SK-OV-3, SKOV3): 4.55 µM"

# Further lines, with some results ahead:
"IC50 [1, 6] [µM]",IC50 ([2]; read-out: IC50),"IC50 [3, 7] [µM]",IC50 [4] [µM],SMILES,VLB/OV3 [2],further results
2.24,3.83 µM,2.81,2.26,"CC(=O)C1CC2=C(C(=O)c3cc4ccccc4c(O)c3C2=O)C(O[C@H]2CC[C@H](NC(=O)C(F)(F)F)[C@H](C)O2)O1 (mixture of isomers) [BCH-1680, (1'S,1S,3R) and (1'S, 1R, 3S)-methyl-{6-hydroxy-1(2',3',4',6'-tetradeoxy-4'-trifluoroacetamido-L-lyxohexopyranose)-5,12-dioxo-3,4,5,12-tetrahydroanthraceno-[2,3-c]pyran-3-yl}ketone]",1.36,
3.53,11 µM,1.67,,"CCC1Cc2c(O)c3c(c(O)c2C(C[C@H]2C[C@H](N)[C@H](O)[C@H](C)O2)O1)C(=O)c1ccccc1C3=O (mixture of isomers) [BCH-2817, (1'S,2'R, 3'S,5'R, 1S,3R) and (1'S,2'R, 3'S,5'R, 1R, 3S)-1-(3-amino-2-hydroxy-1-methyltetrahydropyran-5-yl)methyl-3-ethyl-5,12-dihydroxy-6,11-dioxo-3,4,6,11-tetrahydroanthraceno-[2,3-c]pyran hydrochloride]",6.59,
,4.64 µM,,0.554,C[C@@H]1O[C@@H](O[C@@H]2O[C@@H](c3ccccc3)CC3=C2C(=O)c2cc4ccccc4c(O)c2C3=O)C[C@H](N)[C@@H]1O [BCH-2013],,
,,0.148,,"C=CC[C@H]1Cc2c(O)c3c(c(O)c2[C@H](O[C@H]2C[C@H](N)[C@H](O)[C@H](C)O2)O1)C(=O)c1ccccc1C3=O [BCH-2106, (1'S,1S,3S)-3-(5,12-dihydroxy-1-(2',3',6'-trideoxy-3'-amino-4'-hydroxy-L-lyxohexopyranose)-6,11-dioxo-3,4,5,12-tetrahydroanthraceno-[2,3-c]pyran-3-yl)propene hydrochloride]",,
0.211,0.198 µM,0.374,,"C=C(C)[C@H]1Cc2c(O)c3c(c(O)c2[C@H](O[C@H]2C[C@H](N)[C@H](O)[C@H](C)O2)O1)C(=O)c1ccccc1C3=O [BCH-2188, (1'S,1S,3R)-5,12-dihydroxy-6,11-dioxo-3-isopropenyl-1-(2',3',6'-trideoxy-3'-amino-L-lyxohexopyranose)-3,4,5,12-tetrahydroanthraceno-[2,3-c]-pyran hydrochloride]",,"IC50 [1, 5]: 0.31 µM; VLB/OV3 ([2]; hydrochloride): 0.53 and 0.46; IC50 ([2]; hydrochloride, read-out: IC50): 0.297 µM; IC50 [3, 8]: 0.64 µM"
0.147,,0.268,,"C=C(C)[C@@H]1Cc2c(O)c3c(c(O)c2[C@@H](O[C@H]2C[C@H](N)[C@H](O)[C@H](C)O2)O1)C(=O)c1ccccc1C3=O [BCH-2189, (1'S,1R,3S)-5,12-dihydroxy-6,11-dioxo-3-isopropenyl-1-(2',3',6'-trideoxy-3'-amino-L-lyxohexopyranose)-3,4,5,12-tetrahydroanthraceno-[2,3-c]-pyran hydrochloride]",,"IC50 [1, 5]: 0.144 µM; VLB/OV3 ([2]; hydrochloride): 0.39 and 0.73; IC50 [3, 8]: 0.342 µM"
3.71,3.18 µM,1.65,,"CC(C)[C@H]1Cc2c(O)c3c(c(O)c2[C@H](O[C@H]2C[C@H](N4CCOCC4)[C@H](O)[C@H](C)O2)O1)C(=O)c1ccccc1C3=O [BCH-2190, (1'S,1S,3R)-5,12-dihydroxy-6,11-dioxo-3-isopropyl-1-(2',3',6-trideoxy-3'-(4-morpholinyl)-L-lyxohexopyranose)-3,4,5,12-tetrahydroanthraceno-[2,3-c]-pyran]",1.93,
5.1,5.2 µM,3.5,,C[C@@H]1O[C@@H](O[C@@H]2O[C@@H](C(=O)OC(C)(C)C)CC3=C2C(=O)c2cc4ccccc4c(O)c2C3=O)C[C@H](NC(=O)C(F)(F)F)[C@@H]1O [BCH-2850],1.49,

# — patent US5593970A, “Heterocyclic anthracycline analogs” (priority 1994, dated 1997)
